Numbered stars: 1 amine (or outer) side, 2 acyl side, 3 side chain; on linkers, the order of the positions; unused ones are H or OH. Square brackets hold non-standard residues; d marks the D form. Side chains are listed from the residue outwards. Ends that are not written are not given here. Peptide text beside a SMILES is read from it. * marks the point of attachment. C18 = C18 fatty acid (C16-C22 fatty acids conjugated via γGlu/8-amino-3,6-dioxaoctanoic acid spacers); Biotin = O=C1N[C@H]2[C@H](CS[C@H]2CCCCC(=O)*)N1; C18 diacid = O=C(O)CCCCCCCCCCCCCCCCC(=O)*; γGlu = O=C(O)[C@H](CCC(=O)[*:2])N[*:1]; AEEA = NCCOCCOCC(=O)O; Aib = CC(C)(N)C(=O)O
Tests used:
[1] = Body weight loss in normal C57BL/6 mice, subcutaneous dosing; format: in vivo; conditions: normal mice; 20 nmol/kg QD; Weight loss at 48 hr
[2] = In vivo efficacy in mAMLN (NASH) mice, 2 weeks; conditions: for blood glucose, in words / body weight, in words: 20 nmol/kg s.c. Q2D, 2 weeks; for hepatic triglyceride content, in words / liver weight, in words / mRNA levels of TGF-β1 (inflammation marker) and ACTA2 (fibrosis marker), in words: end of treatment
[3] = Intestinal absorption / PK after intraduodenal administration of oral formulation in rats, serum LC-MS/MS; conditions: rat, in vivo, 300 nmol/kg
Protocol: This study was conducted to evaluate the intestinal absorption of peptides following enteral administration of oral pharmaceutical formulations. The pharmaceutical formulation was administered in a form of suspensions by intraduodenal (ID) injection in rats. SEQ ID_87, 89 and 90 was accurately weighed and dissolved in 10 mM PBS containing polysorbate 80 (pH 7.4, vehicle I). The mixture was vortexed for 5 min to get a clear solution. Then, 2.5 mL of vehicle was added to the mixture and vortexed for 30 min to get homogenous opaque suspension. The composition of Vehicle II was sodium chenodeoxycholate, and propyl gallate in polysorbate 80 in PBS. The animals were not fasted prior to dosing. 0.2˜ 0.4 mL of whole blood was taken from vein at each time point (0, 0.167, 0.5, 1, 2, 4, 8, 24, and 48 hrs after IV or ID administration). The collected whole blood was incubated at room temperature for 20 min and tubes were centrifugated at 13,000 rpm for 10 min at 4° C. The resulting serum 0.1˜ 0.2 mL was transferred into the tube and stored at −70° C. until analysis. The concentrations of peptides in serum were determined by LC-MS/MS analysis. PK parameters were analyzed by non-compartmental analysis using Phoenix WinNonlin 5.0.1. software (Pharsight Corporation, Mountain View, CA, USA).

Row | Compound | Weight loss (%) [1] | blood glucose, in words [2] | body weight, in words [2] | hepatic triglyceride content, in words [2] | liver weight, in words [2] | mRNA levels of TGF-β1 (inflammation marker) and ACTA2 (fibrosis marker), in words [2] | AUC(0-inf) [3] | Cmax [3] | MRT inf [3] | Tmax [3] | half-life [3]
1 | YAibQGT FTSDY SK*YLD YMMQRDFVQWLIEGGPSSGAPPPS (Y[Aib]QGTFTSDYSK([AEEA-AEEA-γGlu-C18])YLDYMMQRDFVQWLIEGGPSSGAPPPS-NH2) [5-2D, K* = lysine lipidated with 2OEG-γGlu-C18] | 16.6 ± 0.9% | reduce blood glucose | reduce body weight | reduce hepatic triglyceride content | reduce liver weight | reduce both TGF-β1 and ACTA2 | – | – | – | – | –
2 | CSCC[C@H](NC(=O)[C@H](Cc1ccc(O)cc1)NC(=O)[C@H](CC(=O)O)NC(=O)[C@H](CC(C)C)NC(=O)[C@H](CC(C)C)NC(=O)[C@H](CCCCNC(=O)COCCOCCNC(=O)COCCOCCNC(=O)CC[C@H](NC(=O)CCCCCCCCCCCCCCCCC(=O)O)C(=O)O)NC(=O)[C@H](CO)NC(=O)[C@H](Cc1ccc(O)cc1)NC(=O)[C@H](CC(=O)O)NC(=O)[C@H](CO)NC(=O)[C@@H](NC(=O)[C@H](Cc1ccccc1)NC(=O)[C@@H](NC(=O)CNC(=O)[C@H](CCC(N)=O)NC(=O)C(C)(C)NC(=O)[C@@H](N)Cc1ccc(O)cc1)[C@@H](C)O)[C@@H](C)O)C(=O)N[C@@H](CCSC)C(=O)N[C@@H](CCC(N)=O)C(=O)N[C@@H](CCCNC(=N)N)C(=O)N[C@@H](CC(=O)O)C(=O)N[C@@H](Cc1ccccc1)C(=O)N[C@H](C(=O)N[C@@H](CCC(N)=O)C(=O)N[C@@H](Cc1c[nH]c2ccccc12)C(=O)N[C@@H](CC(C)C)C(=O)N[C@@H](CC(C)C)C(=O)N[C@@H](CCC(=O)O)C(=O)NCC(=O)NCC(=O)N1CCC[C@H]1C(=O)N[C@@H](CO)C(=O)N[C@@H](CO)C(=O)NCC(=O)N[C@@H](C)C(=O)N1CCC[C@H]1C(=O)N1CCC[C@H]1C(=O)N1CCC[C@H]1C(=O)N[C@@H](CO)C(=O)N[C@@H](CCCCNC(=O)CCCC[C@@H]1SC[C@@H]2NC(=O)N[C@@H]21)C(N)=O)C(C)C [SEQ ID_90] (H-Y[Aib]QGTFTSDYSK([AEEA-AEEA-γGlu-C18 diacid])LLDYMMQRDFVQWLLEGGPSSGAPPPSK(Biotin)-NH2; N-terminus and C-terminus assumed) | – | – | – | – | – | – | 2490 ng·h/mL | 282 ± 88.5 ng/mL | 11.8 ± 1.48 h | 0.3 ± 0.18 h | 8.37 ± 0.92 h
3 | YAibQGT FTSDY SK*LLD YMMQRDFVQWLLEGGPSSGAPPPS (Y[Aib]QGTFTSDYSK([AEEA-AEEA-γGlu-C18])LLDYMMQRDFVQWLLEGGPSSGAPPPS-NH2) [5-3D, K* = lysine lipidated with 2OEG-γGlu-C18] | 7.6 ± 1.3% | reduce blood glucose | reduce body weight | reduce hepatic triglyceride content | reduce liver weight | reduce both TGF-β1 and ACTA2 | – | – | – | – | –
4 | HAibQGT FTSDY SK*YLD YMMARDFVQWLIEGGPSSGAPPPS (H[Aib]QGTFTSDYSK([AEEA-AEEA-γGlu-C18])YLDYMMARDFVQWLIEGGPSSGAPPPS-NH2) [5D, K* = lysine lipidated with 2OEG-γGlu-C18] | 19.4 ± 2.2% | reduce blood glucose | reduce body weight | reduce hepatic triglyceride content | reduce liver weight | reduce both TGF-β1 and ACTA2 | – | – | – | – | –
5 | YAibQGT FTSDY SK*YLD YMMARDFVQWLIEGGPSSGAPPPS (Y[Aib]QGTFTSDYSK([AEEA-AEEA-γGlu-C18])YLDYMMARDFVQWLIEGGPSSGAPPPS-NH2) [5-1D, K* = lysine lipidated with 2OEG-γGlu-C18] | 16.7 ± 1.3% | reduce blood glucose | reduce body weight | reduce hepatic triglyceride content | reduce liver weight | reduce both TGF-β1 and ACTA2 | – | – | – | – | –

Reference: patent publication US20250296960A1, “PEPTIDE COMPOSITIONS AND METHODS OF USE THEREOF” (priority 2022, published 2025)
